# Patent publication US10710978B2, “STK4 inhibitors for treatment of hematologic malignancies” (Dana-Farber Cancer Institute, Inc., priority 2015, dated 2020)
# Values joined by “and” are separate entries in the source; they are usually repeats but may differ in a detail not shown here. Equal values may be shown once. Read-outs that look alike come from different tables or passages of the source.
# Tests used:
# Experiment in all cases: KiNativ assay
# Type in all cases: binding
# [1] = target: ATR (Homo sapiens (Human), UniProt Q13535); details: H929 live cell, read-out: inhibition (10 μM)
# Experimental: (§1) Biochemical IC50s of the compounds of the present disclosure against various kinases were measured in a KiNativ assay. Compounds were screened in duplicate at 10 μM in H929 live cell. IC50 was measured via Mass spectroscopy (MS).
# [2] = target: AurA (Homo sapiens (Human), UniProt O14965); details: H929 live cell
# Experimental: as §1
# [3] = target: CHK1 (Homo sapiens (Human), UniProt O14757); details: H929 live cell
# Experimental: as §1
# [4] = target: CHK2 (Homo sapiens (Human), UniProt O96017); details: H929 live cell
# Experimental: as §1
# [5] = target: EphB2 (Homo sapiens (Human), UniProt P29323); details: H929 live cell
# Experimental: as §1
# [6] = target: GSK3A (Homo sapiens (Human), UniProt P49840); details: H929 live cell
# Experimental: as §1
# [7] = target: ILK (Homo sapiens (Human), UniProt Q13418); details: H929 live cell
# Experimental: as §1
# [8] = target: IRAK1 (Homo sapiens (Human), UniProt P51617); details: H929 live cell
# Experimental: as §1
# [9] = target: JAK1 domain2 (Homo sapiens (Human), UniProt P23458); details: H929 live cell
# Experimental: as §1
# [10] = tested on: JNK1, JNK2, JNK3; details: H929 live cell
# Experimental: as §1
# [11] = target: KHS1 (Homo sapiens (Human), UniProt Q9Y4K4); details: H929 live cell
# Experimental: as §1
# [12] = target: LOK (Homo sapiens (Human), UniProt O94804); details: H929 live cell
# Experimental: as §1
# [13] = target: MAP2K1 (Homo sapiens (Human), UniProt Q02750); details: H929 live cell
# Experimental: as §1
# [14] = target: MAP2K3 (Homo sapiens (Human), UniProt P46734); details: H929 live cell
# Experimental: as §1
# [15] = target: MAP2K6 (Homo sapiens (Human), UniProt P52564); details: H929 live cell
# Experimental: as §1
# [16] = target: MAP2K7 (Homo sapiens (Human), UniProt O14733); details: H929 live cell
# Experimental: as §1
# [17] = target: MAP3K1 (Homo sapiens (Human), UniProt Q13233); details: H929 live cell
# Experimental: as §1
# [18] = tested on: MAPKAPK2, MAPKAPK3; details: H929 live cell
# Experimental: as §1
# [19] = target: MARK4 (Homo sapiens (Human), UniProt Q96L34); details: H929 live cell
# Experimental: as §1
# [20] = target: MAST3 (Homo sapiens (Human), UniProt O60307); details: H929 live cell
# Experimental: as §1
# [21] = target: NDR1 (Homo sapiens (Human), UniProt Q15208); details: H929 live cell
# Experimental: as §1
# [22] = target: NDR2 (Homo sapiens (Human), UniProt Q9Y2H1); details: H929 live cell
# Experimental: as §1
# [23] = target: NEK1 (Homo sapiens (Human), UniProt Q96PY6); details: H929 live cell
# Experimental: as §1
# [24] = target: NEK8 (Homo sapiens (Human), UniProt Q86SG6); details: H929 live cell
# Experimental: as §1
# [25] = target: OSR1 (Homo sapiens (Human), UniProt O95747); details: H929 live cell
# Experimental: as §1
# [26] = target: PHKg2 (Homo sapiens (Human), UniProt P15735); details: H929 live cell
# Experimental: as §1
# [27] = tested on: PI4KA, PI4KAP2; details: H929 live cell
# Experimental: as §1
# [28] = target: PI4KB (Homo sapiens (Human), UniProt Q9UBF8); details: H929 live cell
# Experimental: as §1
# [29] = target: PIK3C3 (Homo sapiens (Human), UniProt Q8NEB9); details: H929 live cell, read-out: inhibition (10 μM)
# Experimental: as §1
# [30] = target: PIP4K2C (Homo sapiens (Human), UniProt Q8TBX8); details: H929 live cell
# Experimental: as §1
# [31] = tested on: RSK1 domain1, RSK2 domain1, RSK3 domain1; details: H929 live cell
# Experimental: as §1
# [32] = target: TYK2 domain2 (Homo sapiens (Human), UniProt P29597); details: H929 live cell
# Experimental: as §1
# [33] = target: ZAK (Homo sapiens (Human), UniProt Q9NYL2); details: H929 live cell
# Experimental: as §1
# Sequence of AurA (O14965 whole entry): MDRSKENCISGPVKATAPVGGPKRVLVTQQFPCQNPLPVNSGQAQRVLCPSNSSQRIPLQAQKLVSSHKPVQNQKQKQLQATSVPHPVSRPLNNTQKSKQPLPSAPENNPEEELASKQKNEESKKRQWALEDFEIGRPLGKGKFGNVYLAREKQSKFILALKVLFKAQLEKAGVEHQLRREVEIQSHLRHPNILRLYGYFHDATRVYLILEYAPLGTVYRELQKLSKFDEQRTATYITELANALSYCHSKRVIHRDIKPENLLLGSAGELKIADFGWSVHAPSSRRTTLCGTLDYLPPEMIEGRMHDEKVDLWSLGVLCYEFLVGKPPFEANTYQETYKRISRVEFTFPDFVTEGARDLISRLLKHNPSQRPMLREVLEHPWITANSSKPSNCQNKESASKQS
# Sequence of JAK1 domain2 (P23458 whole entry, the tested form may be a part): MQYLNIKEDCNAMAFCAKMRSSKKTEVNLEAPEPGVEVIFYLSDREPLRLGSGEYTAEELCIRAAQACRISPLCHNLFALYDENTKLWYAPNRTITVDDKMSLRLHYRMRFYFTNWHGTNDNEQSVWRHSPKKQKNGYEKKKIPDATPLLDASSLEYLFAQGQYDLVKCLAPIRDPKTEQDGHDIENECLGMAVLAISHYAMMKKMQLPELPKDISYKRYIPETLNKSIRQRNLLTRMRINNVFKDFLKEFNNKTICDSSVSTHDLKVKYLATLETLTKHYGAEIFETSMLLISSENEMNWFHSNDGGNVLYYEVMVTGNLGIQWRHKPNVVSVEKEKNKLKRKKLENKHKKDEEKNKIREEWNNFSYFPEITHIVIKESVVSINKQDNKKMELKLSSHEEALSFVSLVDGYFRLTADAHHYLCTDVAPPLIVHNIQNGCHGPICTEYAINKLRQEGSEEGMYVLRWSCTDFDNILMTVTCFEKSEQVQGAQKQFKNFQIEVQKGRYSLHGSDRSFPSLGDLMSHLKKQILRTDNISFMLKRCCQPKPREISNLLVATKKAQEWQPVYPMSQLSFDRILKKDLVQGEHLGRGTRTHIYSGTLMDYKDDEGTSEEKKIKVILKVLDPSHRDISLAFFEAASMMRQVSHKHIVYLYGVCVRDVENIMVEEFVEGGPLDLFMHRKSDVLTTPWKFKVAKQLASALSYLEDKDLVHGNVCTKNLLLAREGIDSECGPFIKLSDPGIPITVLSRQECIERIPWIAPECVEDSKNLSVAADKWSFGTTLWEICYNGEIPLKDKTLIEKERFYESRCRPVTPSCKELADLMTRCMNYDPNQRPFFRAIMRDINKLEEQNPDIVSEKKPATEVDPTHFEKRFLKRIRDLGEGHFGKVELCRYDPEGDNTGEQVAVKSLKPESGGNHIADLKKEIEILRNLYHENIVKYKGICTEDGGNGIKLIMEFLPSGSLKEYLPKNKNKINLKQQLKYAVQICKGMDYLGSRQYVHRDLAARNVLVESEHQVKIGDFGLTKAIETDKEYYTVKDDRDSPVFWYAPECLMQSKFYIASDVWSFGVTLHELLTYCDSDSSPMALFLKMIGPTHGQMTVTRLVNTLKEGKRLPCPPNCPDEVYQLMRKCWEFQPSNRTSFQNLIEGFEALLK
# Sequence of NEK1 (Q96PY6 whole entry): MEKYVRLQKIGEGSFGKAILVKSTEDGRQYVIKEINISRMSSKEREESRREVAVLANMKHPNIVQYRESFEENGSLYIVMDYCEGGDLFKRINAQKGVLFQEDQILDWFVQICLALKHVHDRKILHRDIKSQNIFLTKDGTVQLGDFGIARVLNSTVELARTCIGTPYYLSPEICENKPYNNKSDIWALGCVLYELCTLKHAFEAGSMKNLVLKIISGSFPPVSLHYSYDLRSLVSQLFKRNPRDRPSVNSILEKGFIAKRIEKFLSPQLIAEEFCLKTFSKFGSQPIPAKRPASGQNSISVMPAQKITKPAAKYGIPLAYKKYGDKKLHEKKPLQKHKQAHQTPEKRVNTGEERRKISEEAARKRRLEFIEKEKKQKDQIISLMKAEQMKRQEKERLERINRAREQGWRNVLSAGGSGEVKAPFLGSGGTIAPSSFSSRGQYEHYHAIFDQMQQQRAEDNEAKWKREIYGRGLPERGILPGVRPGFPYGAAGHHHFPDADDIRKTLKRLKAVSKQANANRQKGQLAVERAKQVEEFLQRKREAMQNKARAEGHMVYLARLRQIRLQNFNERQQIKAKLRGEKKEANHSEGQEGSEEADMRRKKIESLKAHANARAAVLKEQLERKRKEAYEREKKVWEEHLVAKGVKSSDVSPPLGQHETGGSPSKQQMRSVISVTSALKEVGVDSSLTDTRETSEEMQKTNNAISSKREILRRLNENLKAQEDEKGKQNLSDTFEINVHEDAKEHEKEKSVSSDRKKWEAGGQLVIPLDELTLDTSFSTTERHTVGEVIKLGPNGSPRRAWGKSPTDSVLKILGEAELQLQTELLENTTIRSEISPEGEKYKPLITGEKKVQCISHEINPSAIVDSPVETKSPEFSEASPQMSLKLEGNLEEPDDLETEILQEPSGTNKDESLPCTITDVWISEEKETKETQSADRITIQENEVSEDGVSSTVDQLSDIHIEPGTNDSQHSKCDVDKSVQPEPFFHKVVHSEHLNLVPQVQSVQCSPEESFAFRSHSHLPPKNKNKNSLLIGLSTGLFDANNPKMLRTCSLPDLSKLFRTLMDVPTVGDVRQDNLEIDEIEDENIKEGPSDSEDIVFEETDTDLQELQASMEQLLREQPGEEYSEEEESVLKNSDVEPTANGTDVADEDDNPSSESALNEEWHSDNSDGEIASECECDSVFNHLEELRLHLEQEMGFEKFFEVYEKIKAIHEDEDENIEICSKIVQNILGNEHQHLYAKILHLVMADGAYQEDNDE
# Sequence of IRAK1 (P51617 whole entry): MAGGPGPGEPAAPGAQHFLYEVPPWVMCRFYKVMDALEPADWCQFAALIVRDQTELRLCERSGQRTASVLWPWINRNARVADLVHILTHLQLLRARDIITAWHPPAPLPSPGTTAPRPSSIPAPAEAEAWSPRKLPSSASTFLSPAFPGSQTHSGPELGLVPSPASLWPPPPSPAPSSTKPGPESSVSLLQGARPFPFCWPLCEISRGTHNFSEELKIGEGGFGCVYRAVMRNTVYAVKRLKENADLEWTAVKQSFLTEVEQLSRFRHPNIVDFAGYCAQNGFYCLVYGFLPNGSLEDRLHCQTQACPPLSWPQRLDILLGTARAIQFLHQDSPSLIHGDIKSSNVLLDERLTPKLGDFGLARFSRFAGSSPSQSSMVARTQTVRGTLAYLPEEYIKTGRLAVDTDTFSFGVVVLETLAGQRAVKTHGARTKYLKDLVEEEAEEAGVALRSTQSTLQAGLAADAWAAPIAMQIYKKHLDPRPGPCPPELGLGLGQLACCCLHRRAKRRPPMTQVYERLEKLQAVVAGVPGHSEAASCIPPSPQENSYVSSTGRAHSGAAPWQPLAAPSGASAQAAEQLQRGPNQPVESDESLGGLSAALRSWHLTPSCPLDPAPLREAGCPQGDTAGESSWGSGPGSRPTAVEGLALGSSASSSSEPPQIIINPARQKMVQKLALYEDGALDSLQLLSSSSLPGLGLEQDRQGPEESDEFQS
# Sequence of OSR1 (O95747 whole entry): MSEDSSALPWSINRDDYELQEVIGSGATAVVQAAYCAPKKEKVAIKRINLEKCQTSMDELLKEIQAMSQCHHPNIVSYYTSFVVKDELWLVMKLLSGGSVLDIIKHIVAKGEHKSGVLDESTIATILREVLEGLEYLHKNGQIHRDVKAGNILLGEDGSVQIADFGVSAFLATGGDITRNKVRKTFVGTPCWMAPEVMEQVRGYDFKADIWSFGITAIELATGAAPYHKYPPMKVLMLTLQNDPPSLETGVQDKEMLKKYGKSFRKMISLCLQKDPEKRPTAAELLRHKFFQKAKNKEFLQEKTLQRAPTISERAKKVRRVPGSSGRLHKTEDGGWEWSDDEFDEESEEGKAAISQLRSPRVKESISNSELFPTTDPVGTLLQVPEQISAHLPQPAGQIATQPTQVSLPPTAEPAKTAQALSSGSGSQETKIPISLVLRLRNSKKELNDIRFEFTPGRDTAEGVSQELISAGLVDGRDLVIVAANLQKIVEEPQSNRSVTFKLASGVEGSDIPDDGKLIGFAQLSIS
# Sequence of CHK2 (O96017 whole entry): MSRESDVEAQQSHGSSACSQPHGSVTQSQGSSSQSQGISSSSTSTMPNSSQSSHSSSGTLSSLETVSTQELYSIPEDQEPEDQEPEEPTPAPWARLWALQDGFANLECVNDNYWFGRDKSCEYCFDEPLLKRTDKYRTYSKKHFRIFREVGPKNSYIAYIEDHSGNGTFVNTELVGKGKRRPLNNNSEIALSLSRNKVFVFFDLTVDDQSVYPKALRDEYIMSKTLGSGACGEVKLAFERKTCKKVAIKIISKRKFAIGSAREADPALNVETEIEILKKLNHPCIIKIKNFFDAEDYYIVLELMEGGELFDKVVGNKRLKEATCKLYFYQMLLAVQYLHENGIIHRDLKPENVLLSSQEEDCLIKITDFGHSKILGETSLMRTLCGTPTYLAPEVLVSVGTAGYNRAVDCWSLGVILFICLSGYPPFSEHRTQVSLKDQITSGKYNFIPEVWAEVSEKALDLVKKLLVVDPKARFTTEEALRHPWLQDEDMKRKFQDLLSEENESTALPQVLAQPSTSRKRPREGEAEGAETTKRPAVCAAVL
# Sequence of MAP2K7 (O14733 whole entry): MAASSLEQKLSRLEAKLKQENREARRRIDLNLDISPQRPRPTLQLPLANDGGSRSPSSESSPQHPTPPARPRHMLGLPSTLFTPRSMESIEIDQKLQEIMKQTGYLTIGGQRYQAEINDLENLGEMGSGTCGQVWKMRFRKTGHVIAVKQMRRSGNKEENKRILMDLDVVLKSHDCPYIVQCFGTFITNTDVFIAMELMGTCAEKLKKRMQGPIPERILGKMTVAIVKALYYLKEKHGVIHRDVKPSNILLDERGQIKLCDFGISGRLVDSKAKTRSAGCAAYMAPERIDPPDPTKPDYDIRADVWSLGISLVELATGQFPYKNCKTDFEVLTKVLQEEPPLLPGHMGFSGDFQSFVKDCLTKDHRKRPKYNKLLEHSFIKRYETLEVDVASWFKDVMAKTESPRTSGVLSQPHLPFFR
compound,measurement,setting,value
"Nc1ncc(-c2cccc([N+](=O)[O-])c2F)cc1-c1ccc2c(c1)CCNC2=O [Compound I-9, 6-(2-amino-5-(2-fluoro-3-nitrophenyl)pyridin-3-yl)-3,4-dihydroisoquinolin-1(2H)-one]",inhibition at 10 µM,[1],37.5%
same,% inhibition (range),[2]; 10 μM,50-75% and 75-90%
same,inhibition (10 μM),[2],75.7%
same,inhibition at 10 µM,[2]; read-out: inhibition (10 μM),68.5%
same,inhibition at 10 µM,[3]; read-out: % inhibition (range),0%
same,inhibition at 10 µM,[3]; read-out: inhibition (10 μM),14.9%
same,inhibition at 10 µM,[4]; read-out: % inhibition (range),75 to 90%
same,inhibition at 10 µM,[4]; read-out: inhibition (10 μM),80.9%
same,inhibition at 10 µM,[5]; read-out: % inhibition (range),0%
same,inhibition at 10 µM,[5]; read-out: inhibition (10 μM),-25%
same,inhibition at 10 µM,[6]; read-out: % inhibition (range),> 90%
same,inhibition at 10 µM,[6]; read-out: inhibition (10 μM),97.2%
same,inhibition at 10 µM,[7]; read-out: % inhibition (range),0%
same,inhibition at 10 µM,[7]; read-out: inhibition (10 μM),-19%
same,inhibition at 10 µM,[8]; read-out: % inhibition (range),75 to 90%
same,inhibition at 10 µM,[8]; read-out: inhibition (10 μM),82.6%
same,inhibition at 10 µM,[9]; read-out: % inhibition (range),0%
same,inhibition at 10 µM,[9]; read-out: inhibition (10 μM),-4.9%
same,% inhibition (range),[10]; 10 μM,0.0%
same,inhibition (10 μM),[10],−24.2%
same,inhibition at 10 µM,[11]; read-out: % inhibition (range),75 to 90%
same,inhibition at 10 µM,[11]; read-out: inhibition (10 μM),79.5%
same,inhibition at 10 µM,[12]; read-out: % inhibition (range),> 90%
same,inhibition at 10 µM,[12]; read-out: inhibition (10 μM),98.5%
same,inhibition at 10 µM,[13]; read-out: % inhibition (range),0%
same,inhibition at 10 µM,[13]; read-out: inhibition (10 μM),-55.8%
same,inhibition at 10 µM,[14]; read-out: % inhibition (range),0%
same,inhibition at 10 µM,[14]; read-out: inhibition (10 μM),-34.2%
same,inhibition at 10 µM,[15]; read-out: % inhibition (range),0%
same,inhibition at 10 µM,[15]; read-out: inhibition (10 μM),6.8%
same,inhibition at 10 µM,[16]; read-out: % inhibition (range),0%
same,inhibition at 10 µM,[16]; read-out: inhibition (10 μM),14.6%
same,inhibition at 10 µM,[17]; read-out: % inhibition (range),> 90%
same,inhibition at 10 µM,[17]; read-out: inhibition (10 μM),95.6%
same,% inhibition (range),[18]; 10 μM,0.0%
same,inhibition (10 μM),[18],4.0%
same,inhibition at 10 µM,[19]; read-out: % inhibition (range),75 to 90%
same,inhibition at 10 µM,[19]; read-out: inhibition (10 μM),> 75%
same,inhibition at 10 µM,[20]; read-out: % inhibition (range),0%
same,inhibition at 10 µM,[20]; read-out: inhibition (10 μM),31.2%
same,inhibition at 10 µM,[21]; read-out: % inhibition (range),0%
same,inhibition at 10 µM,[21]; read-out: inhibition (10 μM),3.5%
same,inhibition at 10 µM,[22]; read-out: % inhibition (range),0%
same,inhibition at 10 µM,[22]; read-out: inhibition (10 μM),-9.5%
same,inhibition at 10 µM,[23]; read-out: % inhibition (range),0%
same,inhibition at 10 µM,[23]; read-out: inhibition (10 μM),-34%
same,inhibition at 10 µM,[24]; read-out: % inhibition (range),0%
same,inhibition at 10 µM,[24]; read-out: inhibition (10 μM),11.6%
same,inhibition at 10 µM,[25]; read-out: % inhibition (range),0%
same,inhibition at 10 µM,[25]; read-out: inhibition (10 μM),-11.8%
same,inhibition at 10 µM,[26]; read-out: % inhibition (range),0%
same,inhibition at 10 µM,[26]; read-out: inhibition (10 μM),-30.7%
same,% inhibition (range),[27]; 10 μM,0.0%
same,inhibition (10 μM),[27],−5.5%
same,inhibition at 10 µM,[28]; read-out: % inhibition (range),0%
same,inhibition at 10 µM,[28]; read-out: inhibition (10 μM),-13.8%
same,inhibition at 10 µM,[29],51.2%
same,inhibition at 10 µM,[30]; read-out: % inhibition (range),50 to 75%
same,inhibition at 10 µM,[30]; read-out: inhibition (10 μM),65.7%
same,% inhibition (range),[31]; 10 μM,50-75%
same,inhibition (10 μM),[31],58.7%
same,inhibition at 10 µM,[32]; read-out: % inhibition (range),0%
same,inhibition at 10 µM,[32]; read-out: inhibition (10 μM),29.9%
same,inhibition at 10 µM,[33]; read-out: % inhibition (range),35 to 50%
same,inhibition at 10 µM,[33]; read-out: inhibition (10 μM),42%
